Measured values: patent EP2246337A1, “Use of isoxazole derivatives as cyclooxygenase inhibitors” (Universita' degli Studi di Bari, priority 2004, dated 2005)
Where two headings read alike, the source gives them in different places. Marks after values point to notes of the source that are not given here. Blank lines part the entries; values can stand above or below the molecule they belong to.

Assays:
platelet COX-1 = target: T1, platelet COX-1 (Homo sapiens, UniProt P23219); assay: COX-1 assay in isolated human whole blood allowed to clot (serum TXB2); assay type: cell-based; details: for IC50: isolated human whole blood clotting 1 hour at 37°C, TXB2, means of at least two experiments
T1 construct: 1 ml aliquots of isolated whole blood were immediately transferred into glass test tubes and kept at a temperature of 37°C; endogenous in cells; host or cells: platelets in human whole blood (healthy volunteers / study subjects)
Description: 11 healthy volunteers (6 females aged between 25 and 29 years) were enrolled to participate in the study after each having given their written approval.
1 ml aliquots of isolated whole blood were immediately transferred into glass test tubes and kept at a temperature of 37°C for 1 hour. The serum was separated by centrifugation (10 min at 3000 rpm) and kept at -70°C until assayed for thromboxane (TX)B2.
From 4 to 9 different concentrations of each compound were incubated with heparinised isolated whole blood samples in the presence of LPS (10 micrograms/ml) for 24 hours or with isolated whole blood samples allowed to clot at 37°C for 1 hour, in order to examine the concentration-dependence of COX-2 vs. COX-1 inhibition, respectively.
The concentrations of PGE2 and TXB2 were measured by radioimmunological assays (Patrono C. et al.. Low dose aspirin and inhibition of thromboxane B2 production in healthy subjects. Thromb. Res. 1980; 17: 317-27; Ciabattoni G. et al. J Endocrinol Invest 1979; 2:173-182). Isolated plasma and serum samples were diluted in the standard diluent of the assay (0.02M phosphate buffer, pH 7.4) and assayed in a volume of 1.5 ml at a final dilution of 1:50-1:30.000. 4000 d.p.m. of [^3H]-PGE2 or [^3H]-TXB2 were used and specific anti-PGE2 and anti-TXB2 antibody diluted 1:100,000 and 1:120,000, respectively. The least detectable concentration was 1-2 pg/ml for both prostanoids.

monocyte COX-2 = target: T2, monocyte COX-2 (Homo sapiens, UniProt P35354); assay: COX-2 assay in LPS-stimulated isolated human whole blood (plasma PGE2); assay type: cell-based; details: for IC50: heparinised isolated human whole blood, LPS 10 micrograms/ml, 24 hours, PGE2, means of at least two experiments
T2 construct: isolated peripheral venous blood samples containing 10 IU of sodium heparin were incubated in the laboratory in the presence of LPS; endogenous in cells; host or cells: monocytes in LPS-stimulated heparinised human whole blood
T2 sequence (P35354 18-604): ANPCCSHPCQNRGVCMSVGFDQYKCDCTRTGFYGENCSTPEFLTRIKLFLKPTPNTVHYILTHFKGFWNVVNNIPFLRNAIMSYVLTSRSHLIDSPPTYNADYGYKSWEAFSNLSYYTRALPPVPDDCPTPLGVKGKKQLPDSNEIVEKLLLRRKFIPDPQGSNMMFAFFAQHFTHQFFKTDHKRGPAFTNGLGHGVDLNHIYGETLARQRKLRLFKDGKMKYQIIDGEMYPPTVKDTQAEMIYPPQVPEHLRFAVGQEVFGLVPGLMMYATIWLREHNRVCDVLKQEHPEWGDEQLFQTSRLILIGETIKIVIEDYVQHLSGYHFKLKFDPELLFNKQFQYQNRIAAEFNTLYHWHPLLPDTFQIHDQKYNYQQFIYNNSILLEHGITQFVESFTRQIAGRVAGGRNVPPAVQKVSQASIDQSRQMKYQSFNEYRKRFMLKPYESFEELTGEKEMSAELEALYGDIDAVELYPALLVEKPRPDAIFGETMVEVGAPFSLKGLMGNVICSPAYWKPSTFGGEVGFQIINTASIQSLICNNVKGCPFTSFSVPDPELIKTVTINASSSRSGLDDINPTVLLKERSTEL

COX-2 monocyte activity [1] = target: T3, COX-2 monocyte activity (Homo sapiens, UniProt P35354); assay: in vivo
Description: (§3) Subjects with disturbances of a haemorrhagic nature, allergy to aspirin or to other non-steroidal anti-inflammatory drugs (NSAID) or with a history of gastrointestinal disorders were excluded from the study. The subjects refrained from using aspirin or other non-steroidal anti-inflammatory drugs (NSAID) for at least two weeks prior to the study. The blood samples were taken to determine COX-1 platelet activity and COX-2 monocyte activity before treatment with the drug and 12 hours after the last administration (at 8 a.m. on the sixth day of the study).
(§4) The effects of Rofecoxib on COX-1 platelet activity were assessed (assessing the production of serum TXB2 as described in Patrono et al., Thromb Res 1980;17:317-27) and on COX-2 monocyte activity (measuring the production of PGE2 in whole blood stimulated with LPS, as described in Patrignani et al., J Pharmacol Exp Ther 1994;271:1705-12).

COX-1 platelet activity = target: T4, COX-1 platelet activity (Homo sapiens, UniProt P23219); assay: Ex vivo platelet COX-1 activity (serum TXB2) in subjects treated with rofecoxib; details: median (range); for Serum Thromboxane B2: rofecoxib 25 mg per day for 5 consecutive days; for COX-1 platelet activity, % of variation vs pretreatment values: 25 mg per day for 5 consecutive days
T4 construct: 1 ml aliquots of isolated whole blood were immediately transferred into glass test tubes and kept at a temperature of 37°C; endogenous in cells; host or cells: platelets in human whole blood (healthy volunteers / study subjects)
Description: as §3, §4

[2] = tested on: biosynthesis of Thromboxane A2; assay: Urinary excretion of 11-dehydro-thromboxane B2 (index of systemic thromboxane A2 biosynthesis in vivo) after rofecoxib; design: species or system human; details: median (range); for 11-dehydro-thromboxane B2: rofecoxib 25 mg per day for 5 consecutive days, overnight urine; for urinary excretion of 11-dehydro-TXB2, % of pre-drug values: 25 mg per day for 5 days
Text: (§1) The collection of overnight urine samples was obtained to assess the urinary excretion of 11-dehydro-thromboxane B2 and of 2,3-dinor-6-keto-PGF1α before treatment with the drug and after the last dose of rofecoxib.
(§2) Biochim Biophys Acta 1987;918:293-7. […] J Pharmacol Exp Ther 1995;275:94-100).

[3] = tested on: biosynthesis of prostacyclin; assay: Urinary excretion of 2,3-dinor-6-keto-PGF1α (index of systemic prostacyclin biosynthesis in vivo) after rofecoxib; design: species or system human; details: for percent change from pretreatment at 25 mg: Homo sapiens, 120 h
Text: as §1, §2

COX-2 monocyte activity [4] = target: T3, COX-2 monocyte activity; details: rofecoxib 25 mg per day for 5 consecutive days, median (range)
Description: as §3, §4

T4 sequence (P23219 24-599): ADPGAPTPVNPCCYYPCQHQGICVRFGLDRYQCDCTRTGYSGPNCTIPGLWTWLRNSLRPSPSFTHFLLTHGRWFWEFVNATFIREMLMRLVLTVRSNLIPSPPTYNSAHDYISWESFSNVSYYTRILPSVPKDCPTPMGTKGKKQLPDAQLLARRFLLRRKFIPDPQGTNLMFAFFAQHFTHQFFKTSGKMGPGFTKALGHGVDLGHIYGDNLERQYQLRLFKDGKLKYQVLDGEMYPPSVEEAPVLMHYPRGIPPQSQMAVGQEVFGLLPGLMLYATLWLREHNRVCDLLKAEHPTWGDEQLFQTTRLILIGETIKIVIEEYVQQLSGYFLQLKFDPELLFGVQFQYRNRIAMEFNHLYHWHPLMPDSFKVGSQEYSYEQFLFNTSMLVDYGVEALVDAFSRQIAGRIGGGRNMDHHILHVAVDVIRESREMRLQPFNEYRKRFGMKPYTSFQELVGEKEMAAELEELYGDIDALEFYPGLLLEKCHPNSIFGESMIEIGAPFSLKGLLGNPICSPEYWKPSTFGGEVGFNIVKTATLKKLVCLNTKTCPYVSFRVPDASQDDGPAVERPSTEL
T1 sequence (P23219 24-599): as above

COX-1 inhibition (result in words) (platelet COX-1): excellent COX-1 inhibitors | suppression of platelet COX-1 activity (platelet COX-1; at concentrations that do not affect monocyte COX-2 activity, concentration-response curves): > 90% | IC50 (platelet COX-1): 500 nM | effect on monocyte COX-2 activity (monocyte COX-2; at concentrations giving virtually complete suppression of platelet COX-1 activity): do not affect monocyte COX-2 activity
SMILES: Cc1onc(-c2ccc(Cl)o2)c1-c1ccccc1 [2c (P6), 3-(5-Chloro-2-furyl)-4-phenyl-5-methylisoxazole]

COX-1 inhibition (result in words) (platelet COX-1): excellent COX-1 inhibitors | IC50 (platelet COX-1): 50 nM | IC50 (monocyte COX-2): 1490 nM
SMILES: CCc1onc(-c2ccccc2)c1-c1ccccc1 [2g (P9), 3,4-Diphenyl-5-ethylisoxazole]

COX-1 inhibition (result in words) (platelet COX-1): excellent COX-1 inhibitors | IC50 (platelet COX-1): 90 nM | IC50 (monocyte COX-2): 2490 nM
SMILES: Cc1onc(-c2ccccc2)c1-c1ccccc1 [2a (P10), 3,4-Diphenyl-5-methylisoxazole]

SMILES: CS(=O)(=O)c1ccc(C2=C(c3ccccc3)C(=O)OC2)cc1 [Rofecoxib]
inhibition at 25 mg (COX-2 monocyte activity [1]; read-out: monocyte COX-2 activity ex vivo, % inhibition, carriers of TLR4 polymorphism, 25 mg per day for 5 consecutive days, median (range)): -94% | inhibition at 25 mg (COX-2 monocyte activity [1]; read-out: monocyte COX-2 activity ex vivo, % inhibition, non carriers of TLR4 polymorphism, 25 mg per day for 5 consecutive days, median (range)): -85% | Serum Thromboxane B2 (COX-1 platelet activity; "Wild-type" TLR4 subjects): 233.5 (178-391) ng/ml | Serum Thromboxane B2 (COX-1 platelet activity; Carriers of TLR4 Polymorphisms): 225 (94-728) ng/ml | COX-1 platelet activity, % of variation vs pretreatment values (COX-1 platelet activity; carriers of TLR4 polymorphism): -11(from 0 to -57) % | COX-1 platelet activity, % of variation vs pretreatment values (COX-1 platelet activity; non carriers of TLR4 polymorphism): -10(from 0 to -10) % | 11-dehydro-thromboxane B2 ([2]; "Wild-type" TLR4 subjects): 345 (155-595.6) pg/mg creatinine | urinary excretion of 11-dehydro-TXB2, % of pre-drug values ([2]; "wild-type" subjects): 71 (67-84) % | 11-dehydro-thromboxane B2 ([2]; Carriers of TLR4 Polymorphisms): 329 (158-587)^* pg/mg creatinine | urinary excretion of 11-dehydro-TXB2, % of pre-drug values ([2]; carriers of TLR4 polymorphisms): 174 (136-354) % | 2,3 dinor-6 keto-prostaglandin F1α ([3]; "Wild-type" TLR4 subjects, rofecoxib 25 mg per day for 5 consecutive days, overnight urine, median (range)): 56.5(38-84)^* pg/mg creatinine | 2,3 dinor-6-keto-prostaglandin F1α ([3]; Carriers of TLR4 Polymorphisms, rofecoxib 25 mg per day for 5 consecutive days, overnight urine, median (range)): 50 (28-93)^* pg/mg creatinine | percent change from pretreatment at 25 mg ([3]; read-out: inhibition of the urinary excretion of 2,3-dinor-6-keto PGF1α, "wild-type" subjects (second value of 'respectively'), 25 mg per day for 5 days, median (range)): -61% | percent change from pretreatment at 25 mg ([3]; read-out: inhibition of the urinary excretion of 2,3-dinor-6-keto PGF1α, carriers of TLR4 polymorphisms (first value of 'respectively'), 25 mg per day for 5 days, median (range)): -64% | inhibition of prostacyclin ([3]; similar in the two groups of patients (carriers of TLR4 polymorphisms and wild-type)): about 60% | Prostaglandin E2 induced by lipopolysaccharide (COX-2 monocyte activity [4]; "Wild-type" TLR4 subjects): 2.3 (0.3-4.2) ^** ng/ml | Prostaglandin E2 induced by lipopolysaccharide (COX-2 monocyte activity [4]; Carriers of TLR4 Polymorphisms): 5.3 (1.9-11)^** ng/ml
